Target: Recombinant human PDK1 enzyme (aa 52-556) (Homo sapiens (Human), UniProt O15530)
Assay: PDK1 kinase assay
Format: biochemical
Conditions: in vitro kinase assay, His6-PDK1 (aa 52-556), PDKtide, P33-ATP
Experimental: The activity of the compounds according to the invention on the kinase PDK1 which inhibits the signal transduction pathway is determined in an in vitro kinase assay with recombinantly prepared protein:
Recombinant human PDK1 enzyme (aa 52-556) linked at its N-terminal end to His6 is isolated from baculovirus-infected insect cells. Purified enzyme may be obtained for example from the University of Dundee, Scotland. The following components are combined in a well of a 96-well round-based dish (Greiner bio-one, No. 650101): • 15 μL of compound to be tested in varying concentrations (e.g. starting at 10 μM, and diluted in steps of 1:5) in APT buffer (50 mM Tris/Cl pH 7.5; 0.05% β-mercaptoethanol; 10 mM Mg-acetate; 0.0166% Tween 20; 3.33% DMSO) • 15 μL His6-PDK1 (aa 52-556) 3.33 ng/well) and PDKtide ([…]), synthesised by Pepceuticals Limited, Nottingham, United Kingdom; 25 μM final concentration); His6-PDK1 and PDKtide are together diluted accordingly in assay buffer (50 mM tris pH 7.5, 0.05% β-mercaptoethanol, 10 mM Mg-acetate); PDKtide is present in this mixture as an 83.3 μM solution. These 30 μl are routinely incubated for 30 min at RT. • 20 μL ATP solution (25 μM ATP with 1.0 μCi/well gamma-P33-ATP). The final concentration of Tween 20 is 0.005%.
The reaction is started by adding the ATP solution and the mixture is incubated for 90 min at RT. At the start of the reaction the dishes are shaken gently. The reaction is stopped by the addition of 50 μL/well of 500 mM phosphoric acid (H3PO4) and incubated for about 20 min at RT. The precipitate is transferred by harvesting onto filter plates (96-well microtitre filter plate: UniFilter GF/C; Perkin Elmer; No. 6005174), then washed 6 times with 50 mM H3PO4 and dried at 60° C. Then the plate is stuck down with sealing tape, 25 μL/well of scintillation solution (Microscint 0; Perkin Elmer; No. 6013611) are added and the amount of P33 precipitated is measured using the Wallac Betacounter. The measured data are evaluated using Graphpad Prism software.

Sequence of Recombinant human PDK1 enzyme (aa 52-556) (O15530 52-556): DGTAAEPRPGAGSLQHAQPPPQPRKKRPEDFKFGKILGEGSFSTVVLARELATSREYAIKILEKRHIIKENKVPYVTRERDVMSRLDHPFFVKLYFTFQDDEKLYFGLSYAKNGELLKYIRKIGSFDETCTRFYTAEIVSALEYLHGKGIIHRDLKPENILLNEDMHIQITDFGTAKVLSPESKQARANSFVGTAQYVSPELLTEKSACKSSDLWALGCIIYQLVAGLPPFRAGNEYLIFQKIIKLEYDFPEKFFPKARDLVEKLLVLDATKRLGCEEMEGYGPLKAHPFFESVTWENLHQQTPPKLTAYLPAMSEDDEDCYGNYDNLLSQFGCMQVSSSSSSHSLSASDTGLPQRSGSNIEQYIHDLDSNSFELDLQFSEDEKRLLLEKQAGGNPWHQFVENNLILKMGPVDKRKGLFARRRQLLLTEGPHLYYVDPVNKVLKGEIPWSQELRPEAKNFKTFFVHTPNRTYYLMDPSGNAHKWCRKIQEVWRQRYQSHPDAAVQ

| SMILES | IC50 [nM] |
| --- | --- |
| CN1CCC(Oc2ccnc3ccc(C#CCNC(=O)c4cccn(Cc5ccc(F)c(F)c5)c4=O)cc23)C1 (stereo not shown) [I-107] | 212 |
| O=C(NCC#Cc1ccc2nccc(NC3CC3)c2c1)c1cncn(Cc2ccc(F)c(F)c2)c1=O [I-115] | 780 |
| CC(C)=Cc1cnc2ccc(C#CCNC(=O)c3cncn(Cc4ccc(F)c(F)c4)c3=O)cc2n1 [I-68] | 233 |
| CCOc1ccnc2ccc(C#CCNC(=O)c3cccn(C(CO)c4ccc(F)c(F)c4)c3=O)cc12 (stereo not shown) [I-125.15] | 11 |
| O=C(NCC#Cc1ccc2ncc(NC3CCN(C4COC4)CC3)nc2c1)c1ccnn(Cc2ccc(F)c(F)c2)c1=O [I-54] | 8 |
| CC(C)Nc1cnc2ccc(C#CCNC(=O)c3cncn(Cc4ccc(F)c(F)c4)c3=O)cc2n1 [I-35] | 21 |
| CN1CCCC(COc2ccnc3ccc(C#CCNC(=O)c4cccn(Cc5ccc(F)c(F)c5)c4=O)cc23)C1 (stereo not shown) [I-101] | 5 |
| CN1CCC(Oc2ccnc3ccc(C#CCNC(=O)c4cncn(Cc5ccc(F)c(F)c5)c4=O)cc23)C1 (stereo not shown) [I-106] | 119 |
| CC(C)Oc1ccnc2ccc(C#CCNC(=O)c3cncn(Cc4ccc(F)c(F)c4)c3=O)cc12 [I-97] | 38 |
| C[C@@H](c1ccc(F)c(F)c1)n1cccc(C(=O)NCC#Cc2ccc3ncc(NC4CCN(C5COC5)CC4)nc3c2)c1=O [I-58] | 8 |
| O=C(NCC#Cc1ccc2nccc(OCC3CCCCO3)c2c1)c1cncn(Cc2ccc(F)c(F)c2)c1=O (stereo not shown) [I-108] | 116 |
| O=C(NCC#Cc1ccc2ncc(N[C@H]3CC[C@H](N4CCOCC4)CC3)nc2c1)c1cccn([C@H](CO)c2ccccc2)c1=O [I-59] | 5 |
| O=C(NCC#Cc1ccc2ncc(NC3CCCCC3)nc2c1)c1cncn(Cc2ccc(F)c(F)c2)c1=O [I-26] | 588 |
| O=C(NCC#Cc1ccc2nccc(OCC3CCOCC3)c2c1)c1cccn(C(CO)c2ccc(F)c(F)c2)c1=O (stereo not shown) [I-125.16] | 11 |
| O=C(NCC#Cc1ccc2ncc(NC3CC(N4CCCC4)C3)nc2c1)c1cncn(Cc2ccc(F)c(F)c2)c1=O (stereo not shown) [I-29] | 41 |
| CC1(O)CCN(c2ncnc3ccc(C#CCNC(=O)c4cccn(Cc5ccc(F)c(F)c5)c4=O)cc23)CC1 [II-41] | 61 |
| O=C(NCC#Cc1ccc2nccc(OCC3CCCO3)c2c1)c1cncn(Cc2ccc(F)c(F)c2)c1=O (stereo not shown) [I-121] | 156 |
| COc1ccnc2ccc(C#CCNC(=O)c3cccn(Cc4ccc(F)c(F)c4)c3=O)cc12 [I-92] | 128 |
| CCN1CCC(Nc2cnc3ccc(C#CCNC(=O)c4cccn(Cc5ccc(F)c(F)c5)c4=O)cc3n2)CC1 [I-46] | 7 |

| SMILES | IC50 [nM] |
| --- | --- |
| COCCN1CCC(Nc2cnc3ccc(C#CCNC(=O)c4cccn([C@H](CO)c5cccc(F)c5)c4=O)cc3n2)CC1 [I-55] | 4 |
| CC(C)Nc1c(C#N)cnc2ccc(C#CCNC(=O)c3cccn(Cc4ccc(F)c(F)c4)c3=O)cc12 [II-104] | 147 |
| CCNc1c([N+](=O)[O-])cnc2ccc(C#CCNC(=O)c3cncn(Cc4ccc(F)c(F)c4)c3=O)cc12 [I-126] | 86 |
| O=C(NCC#Cc1ccc2ncc(NC3CCN(C4COC4)CC3)nc2c1)c1cccn(Cc2ccc(F)c(F)c2)c1=O [I-57] | 9 |
| CN(C)CCCOc1ncnc2ccc(C#CCNC(=O)c3cncn(Cc4ccc(F)c(F)c4)c3=O)cc12 [I-8] | 103 |
| CN1CCC[C@@H](COc2ccnc3ccc(C#CCNC(=O)c4cccn(C(CO)c5cc(F)c(F)c(F)c5)c4=O)cc23)C1 (stereo partly shown) [I-125.21] | 2 |
| CN1CCC(Cc2cnc3ccc(C#CCNC(=O)c4cncn(Cc5ccc(F)c(F)c5)c4=O)cc3n2)CC1 [I-67] | 940 |
| CCN1CCC(Nc2cnc3ccc(C#CCNC(=O)c4cncn(Cc5ccc(F)c(F)c5)c4=O)cc3n2)CC1 [I-22] | 6 |
| CC(c1ccc(F)c(F)c1)n1cccc(C(=O)NCC#Cc2ccc3nccc(OC[C@H]4CCN(C)C4)c3c2)c1=O (stereo partly shown) [I-125.10] | 3 |
| O=C(NCC#Cc1ccc2ncnc(N3CCCC3)c2c1)c1cccn(Cc2ccc(F)c(F)c2)c1=O [II-27] | 52 |
| CCN1CCC(Nc2cnc3ccc(C#CCNC(=O)c4cccn(Cc5ccc(F)c(F)c5)c4=O)cc3c2)CC1 [I-72] | 2 |
| C[C@@H](c1cc(F)c(F)c(F)c1)n1cccc(C(=O)NCC#Cc2ccc3nccc(OC[C@@H]4CCCN(CCN5CCOCC5)C4)c3c2)c1=O [I-125.20] | 17 |
| COC(C)CCOc1ccnc2ccc(C#CCNC(=O)c3cccn(Cc4ccc(F)c(F)c4)c3=O)cc12 (stereo not shown) [I-110] | 137 |
| CN1CCC(CNc2ncnc3ccc(C#CCNC(=O)c4cccn(Cc5ccc(F)c(F)c5)c4=O)cc23)C1 (stereo not shown) [II-38] | 97 |
| CC(c1cc(F)c(F)c(F)c1)n1cccc(C(=O)NCC#Cc2ccc3nccc(OC[C@@H]4CCN(C)C4)c3c2)c1=O (stereo partly shown) [I-125.1] | 3 |
| CN1CCC(Nc2cnc3ccc(C#CCNC(=O)c4cccn([C@@H](CO)c5ccc(F)c(F)c5)c4=O)cc3n2)CC1 [I-41] | 3 |
| COCCN1CCC(Nc2cnc3ccc(C#CCNC(=O)c4cccn([C@@H](CO)c5ccc(F)c(F)c5)c4=O)cc3c2)CC1 [I-77] | 4 |
| CC(c1ccc(F)c(F)c1)n1cccc(C(=O)NCC#Cc2ccc3nccc(OCCCN(C)C)c3c2)c1=O (stereo not shown) [I-124] | 2 |
| NC1CCC(Nc2cnc3ccc(C#CCNC(=O)c4cncn(Cc5ccc(F)c(F)c5)c4=O)cc3n2)C1 (stereo not shown) [I-44] | 11 |

Further lines, results first:

| IC50 [nM] | SMILES |
| --- | --- |
| 683 | CN(CC1CCCCC1)c1c(C#N)cnc2ccc(C#CCNC(=O)c3cccn(Cc4ccc(F)c(F)c4)c3=O)cc12 [II-99] |
| 35 | O=C(NCC#Cc1ccc2nccc(-c3cn[nH]c3)c2c1)c1cncn(Cc2ccc(F)c(F)c2)c1=O [II-89] |
| 40 | CN(Cc1cnn(-c2ccc(F)cc2)c1)c1ncnc2ccc(C#CCNC(=O)c3cccn(Cc4ccc(F)c(F)c4)c3=O)cc12 [II-44] |
| 158 | COCCCNc1ncnc2ccc(C#CCNC(=O)c3cncn(Cc4ccc(F)c(F)c4)c3=O)cc12 [II-14] |
| 8 | CCN(CC)c1ncnc2ccc(C#CCNC(=O)c3cc(Cl)nn(Cc4ccc(F)c(F)c4)c3=O)cc12 [II-43] |
| 57 | CONc1ncnc2ccc(C#CCNC(=O)c3cncn(Cc4ccc(F)c(F)c4)c3=O)cc12 [II-61] |
| 357 | CNc1ncnc2ccc(C#CCNC(=O)c3cc(NCCN(C)C)nn(Cc4ccc(F)c(F)c4)c3=O)cc12 [II-57] |
| 500 | CN(c1ncnc2ccc(C#CCNC(=O)c3cncn(Cc4ccc(F)c(F)c4)c3=O)cc12)C(C)(C)C [II-19] |
| 8 | CNc1ncnc2ccc(C#CCNC(=O)c3cccn([C@@H](C)c4ccc(F)c(F)c4)c3=O)cc12 [II-60] |
| 871 | N#Cc1cnc2ccc(C#CCNC(=O)c3cccn(Cc4ccc(F)c(F)c4)c3=O)cc2c1NCc1ccccc1 [II-102] |
| 31 | CCNC(=O)c1cnc2ccc(C#CCNC(=O)c3cncn(Cc4ccc(F)c(F)c4)c3=O)cc2c1 [II-76] |
| 9 | CNc1ncnc2ccc(C#CCNC(=O)c3cc(OC)nn(Cc4ccc(F)c(F)c4)c3=O)cc12 [II-59] |
| 1000 | CCN(CC)C(=O)c1cnc2ccc(C#CCNC(=O)c3cncn(Cc4ccc(F)c(F)c4)c3=O)cc2c1 [II-71] |
| 91 | COc1ccc(CCNc2ncnc3ccc(C#CCNC(=O)c4cncn(Cc5ccc(F)c(F)c5)c4=O)cc23)cc1OC [II-8] |
| 12 | CNc1ncnc2ccc(C#CCNC(=O)c3cncn(Cc4ccc(F)c(F)c4)c3=O)cc12 [II-1] |
| 355 | CN(C)C(=O)c1cnc2ccc(C#CCNC(=O)c3cncn(Cc4ccc(F)c(F)c4)c3=O)cc2c1 [II-86] |
| 24 | CN1CCC(NC(=O)c2cnc3ccc(C#CCNC(=O)c4cncn(Cc5ccc(F)c(F)c5)c4=O)cc3c2)C1 (stereo not shown) [II-87] |
| 10 | CNc1ncnc2ccc(C#CCNC(=O)c3cc(Cl)nn(Cc4ccc(F)c(F)c4)c3=O)cc12 [II-58] |
| 98 | Cc1ncnc2ccc(C#CCNC(=O)c3cncn(Cc4ccc(F)c(F)c4)c3=O)cc12 [II-66] |
| 60 | CCN(CC)c1ncnc2ccc(C#CCNC(=O)c3cccn([C@@H](C)c4ccccc4)c3=O)cc12 [II-55] |
| 8 | CCN(CC)c1ncnc2ccc(C#CCNC(=O)c3cccn(C(C)c4ccc(F)c(F)c4)c3=O)cc12 (stereo not shown) [II-54] |
| 1060 | N#Cc1cnc2ccc(C#CCNC(=O)c3cccn(Cc4ccc(F)c(F)c4)c3=O)cc2c1NCC1CCCCC1 [II-97] |
| 105 | O=C(NCC#Cc1ccc2ncnc(NCCc3ccccn3)c2c1)c1cncn(Cc2ccc(F)c(F)c2)c1=O [II-7] |
| 135 | O=C(NCC#Cc1ccc2ncnc(NCCCn3ccnc3)c2c1)c1cncn(Cc2ccc(F)c(F)c2)c1=O [II-11] |
| 218 | O=C(CNc1ncnc2ccc(C#CCNC(=O)c3cncn(Cc4ccc(F)c(F)c4)c3=O)cc12)c1ccccc1 [II-16] |
| 41 | COc1ccc(CCNc2ncnc3ccc(C#CCNC(=O)c4cncn(Cc5ccc(F)c(F)c5)c4=O)cc23)cc1 [II-18] |

From patent publication US8575203B2, “Chemical compounds” (Boehringer Ingelheim International GmbH, priority 2010, dated 2013)
